{
  "source": "paper PMC4832243",
  "about": "“Discovery of Potent VEGFR-2 Inhibitors based on Furopyrimidine and Thienopyrimidne Scaffolds as Cancer Targeting Agents” (Scientific Reports, 2016)",
  "key": {"[1]": {"assay": "Toxicity: vital organs' indices and histopathology in EAC solid tumor bearing mice", "assay_type": "in vivo, Swiss albino mice", "conditions": "for Brain Index / Heart Index / Kidney Index / Liver Index: mean ± SD (n = 6)"}, "c-Kit": {"molecular_target": "c-Kit (Homo sapiens, UniProt P10721)", "sequence (P10721 26-976)": "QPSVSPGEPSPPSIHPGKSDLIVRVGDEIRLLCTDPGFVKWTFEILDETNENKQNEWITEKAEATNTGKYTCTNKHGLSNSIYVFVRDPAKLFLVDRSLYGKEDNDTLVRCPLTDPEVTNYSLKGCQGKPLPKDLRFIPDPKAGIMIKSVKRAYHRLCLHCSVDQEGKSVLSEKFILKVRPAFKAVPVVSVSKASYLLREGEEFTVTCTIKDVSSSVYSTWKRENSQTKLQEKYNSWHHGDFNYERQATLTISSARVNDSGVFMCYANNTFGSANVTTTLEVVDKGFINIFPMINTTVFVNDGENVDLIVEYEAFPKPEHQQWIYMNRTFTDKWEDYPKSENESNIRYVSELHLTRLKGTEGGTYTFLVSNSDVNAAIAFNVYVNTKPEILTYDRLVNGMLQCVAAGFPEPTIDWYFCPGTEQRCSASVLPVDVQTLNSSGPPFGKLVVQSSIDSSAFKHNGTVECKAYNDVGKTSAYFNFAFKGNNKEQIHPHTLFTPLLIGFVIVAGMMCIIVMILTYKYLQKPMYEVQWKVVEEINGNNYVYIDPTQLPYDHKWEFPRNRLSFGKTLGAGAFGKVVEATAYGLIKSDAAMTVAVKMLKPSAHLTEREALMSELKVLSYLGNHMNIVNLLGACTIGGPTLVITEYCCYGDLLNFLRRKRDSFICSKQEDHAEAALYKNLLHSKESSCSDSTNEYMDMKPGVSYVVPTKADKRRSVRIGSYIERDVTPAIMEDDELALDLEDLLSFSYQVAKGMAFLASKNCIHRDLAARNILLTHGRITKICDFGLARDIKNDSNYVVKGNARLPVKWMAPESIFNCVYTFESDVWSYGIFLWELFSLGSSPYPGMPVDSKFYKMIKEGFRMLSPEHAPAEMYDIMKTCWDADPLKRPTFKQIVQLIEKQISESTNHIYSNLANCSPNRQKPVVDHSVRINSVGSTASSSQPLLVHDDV", "assay": "In vitro multiple-kinase inhibition assay, c-Kit (ADP-Glo)", "assay_type": "biochemical", "procedure": "(§1) In vitro multiple-kinase inhibition assay. […] Kinase enzymatic activity of the tested compounds was evaluated against a reference kinase inhibitor at 10 μM (Table 2).\n(§2) The multiple kinases activity at single dose concentration of 10 μM was performed, c-Kit, c-Raf, c-Src, RET served as the enzyme source. […] Kinase-Glo Plus Luminescence kinase assay kit (Promega#V3772), ADP-Glo Luminescence assay kit was used for c-kit assay (Supplementary). […]\n(§3) mM MgCl2, 0.1 mg/ml BSA, 1 mM DTT, 10 µM ATP, Kinase substrate and VEGFR. After the enzymatic reaction, 50 µl of Kinase-Glo Plus Luminescence kinase assay solution (Promega) was added to each reaction and incubate the plate for 5 minutes at room temperature.\n(§4) Luminescence signal was measured using a BioTek Synergy 2 microplate reader. VEGFR activity assays were performed in duplicate at each concentration.\n(§5) The luminescence data were analyzed using the computer software, Graphpad Prism. The difference between luminescence intensities in the absence of VEGFR (Lut) and in the presence of VEGFR (Luc) was defined as 100 % activity (Lut – Luc). Using luminescence signal (Lu) in the presence of the compound, % activity was calculated as:\n(§6) % activity = {(Lut - Lu)/(Lut - Luc)}×100%, where Lu= the luminescence intensity in the […]\n(§7) IC50 determination for inhibitor against VEGFR was calculated. The values of % activity versus a series of compound concentrations (1 nM - 10 nM - 100 nM - 1 µM - 10 µM) were then […]\n(§8) or Hill coefficient. The IC50 value was determined by the concentration causing a half-maximal […]\n(§9) In vitro multiple-kinase inhibition assay\nThe assay was performed using the same conditions for VEGFR-2 activity assay (section 5.2.1.1). The assays for c-Kit was an exception, it was performed using ADP-Glo Kinase assay reagents (Promega). It measures kinase activity by quantitating the ADP amount produced from the enzymatic reaction. The luminescent signal from the assay is correlated with the amount of ADP present and is directly correlated with the amount of kinase activity. Other conditions are same to the previous section except the final reaction volume was reduced to 25 µl. After the 40 min kinase reaction at 30 °C, 25 µl of ADP-Glo reagent was added and incubated for 45 min at room temperature followed by another 50 min incubation with 50 µl of Kinase detection mixture.\n(§10) Luminescence signal was measured using a BioTek Synergy 2 microplate reader […]\n(§11) The luminescence data were analyzed using the same computer software and the same protocol"}, "phospho-VEGFR-2 (Tyr951)": {"molecular_target": "phospho-VEGFR-2 (Tyr951) (Mus musculus, UniProt P35918)", "sequence (P35918 20-1345)": "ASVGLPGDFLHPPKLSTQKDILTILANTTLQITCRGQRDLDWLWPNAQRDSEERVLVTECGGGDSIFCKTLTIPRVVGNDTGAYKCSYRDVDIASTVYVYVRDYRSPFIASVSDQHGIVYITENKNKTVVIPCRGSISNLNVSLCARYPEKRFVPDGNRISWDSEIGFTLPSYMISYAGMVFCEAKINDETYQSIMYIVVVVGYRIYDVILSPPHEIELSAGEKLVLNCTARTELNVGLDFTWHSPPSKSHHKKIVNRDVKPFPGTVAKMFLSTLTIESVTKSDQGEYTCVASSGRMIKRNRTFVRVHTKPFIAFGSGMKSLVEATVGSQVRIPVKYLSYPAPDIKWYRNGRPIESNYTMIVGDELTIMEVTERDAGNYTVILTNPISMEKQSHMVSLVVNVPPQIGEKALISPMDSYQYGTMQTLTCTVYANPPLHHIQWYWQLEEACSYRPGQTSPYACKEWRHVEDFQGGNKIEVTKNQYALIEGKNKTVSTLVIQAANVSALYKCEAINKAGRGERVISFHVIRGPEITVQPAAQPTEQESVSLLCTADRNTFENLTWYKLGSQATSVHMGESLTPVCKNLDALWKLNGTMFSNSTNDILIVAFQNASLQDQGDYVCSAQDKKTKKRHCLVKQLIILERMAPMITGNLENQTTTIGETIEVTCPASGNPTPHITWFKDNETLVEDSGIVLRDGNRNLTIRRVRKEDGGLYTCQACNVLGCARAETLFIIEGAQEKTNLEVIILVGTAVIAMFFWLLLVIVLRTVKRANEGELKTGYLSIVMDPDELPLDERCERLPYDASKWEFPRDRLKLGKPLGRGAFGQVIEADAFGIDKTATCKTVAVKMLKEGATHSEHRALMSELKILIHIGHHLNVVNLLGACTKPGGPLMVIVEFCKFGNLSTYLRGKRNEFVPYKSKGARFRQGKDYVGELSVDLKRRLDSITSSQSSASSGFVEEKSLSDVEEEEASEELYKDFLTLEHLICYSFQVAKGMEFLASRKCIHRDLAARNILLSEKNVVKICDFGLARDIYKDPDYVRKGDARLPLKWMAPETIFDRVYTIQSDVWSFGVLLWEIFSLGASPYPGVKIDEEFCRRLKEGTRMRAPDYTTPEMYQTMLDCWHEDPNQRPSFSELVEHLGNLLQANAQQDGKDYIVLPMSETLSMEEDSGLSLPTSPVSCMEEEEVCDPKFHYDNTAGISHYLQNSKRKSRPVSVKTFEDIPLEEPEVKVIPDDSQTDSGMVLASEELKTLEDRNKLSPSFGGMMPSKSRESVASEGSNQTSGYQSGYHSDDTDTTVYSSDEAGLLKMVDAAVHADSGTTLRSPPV", "assay": "Immunohistochemistry of EAC solid tumor sections, phospho-VEGFR-2", "conditions": "oral treatment of EAC-bearing mice"}, "active caspase 3": {"test_system": "active caspase 3", "assay": "Immunohistochemistry of EAC solid tumor sections, active caspase 3", "conditions": "oral treatment of EAC-bearing mice"}, "CD31 and CD34 (% MVD)": {"test_system": "CD31 and CD34 (% MVD)", "assay": "Immunohistochemistry of EAC solid tumor sections, microvessel density (CD31, CD34)", "conditions": "oral treatment of EAC-bearing mice"}, "[2]": {"test_system": "Ehrlich ascites carcinoma (EAC) solid tumor", "assay": "In vivo anticancer activity, EAC solid tumor murine model", "design": "species or system Swiss albino mice", "conditions": "for TGI (%): once daily for 8 consecutive days; for Histopathological examination of EAC tumor sections (necrosis): hematoxylin-eosin, 40x", "procedure": "Animals. Female Swiss albino mice weighing 15–20 g were used in the present study. They were obtained from the animal breeding laboratory, National Cancer Institute (NCI), Cairo University, Egypt. Animals were kept in our animal facility, faculty of pharmacy, Ain Shams university at 25 ± 2 °C and a relative humidity of 40–45% with alternative day and night cycles of 12 h each. Animals had free access to pellet food and water ad libitum. Standard diet pellets (El-Nasr, Abu Zaabal, Egypt) contained not less than 20% protein, 5% fiber, 3.5% fat, 6.5% ash and a vitamin mixture. Animal care and experiments were conducted in accordance with the protocols approved by the Ethics Research Committee, Faculty of Pharmacy, Ain Shams University, following the Institutional Animal Care and Use Committee guidelines.\nTumor cells preparation and transplantation. Ehrlich ascites carcinoma (EAC) cells were obtained from NCI, Cairo University, Egypt. EAC cells were maintained in the ascitic form in Swiss albino mice by intraperitoneal transplantation of each mouse every 10 days. Ascitic fluid was drawn from tumor-bearing mice at the log phase (7–8th day of tumor bearing) of the tumor cells. The freshly drawn fluid was diluted with ice-cold sterile isotonic saline. 200 μl tumor cell suspension containing 2 × 10^6 tumor cells were then subcutaneously injected in each mouse.\nExperimental design. Swiss albino mice were divided into six groups (n = 6 per group).\nEvaluation of effectiveness. Tumor growth curve was drawn according to the change in tumor volume from first day of treatment (day 0) till day 7. Longest and shortest diameters of the solid tumor were monitored using a digital vernier caliper. Tumor volume (TV) of each animal was calculated using the following formula: […]\nTumor growth inhibition (TGI) was calculated as follows.\nRTV = (Tumor volume at the day of measurement)/Tumor volume at the initial day.\nHistopathological Examination\nthickness by slidge microtome.\ngraded ethanol solutions."}, "c-Src": {"molecular_target": "c-Src (Homo sapiens, UniProt P12931)", "sequence (P12931 whole entry, species assumed)": "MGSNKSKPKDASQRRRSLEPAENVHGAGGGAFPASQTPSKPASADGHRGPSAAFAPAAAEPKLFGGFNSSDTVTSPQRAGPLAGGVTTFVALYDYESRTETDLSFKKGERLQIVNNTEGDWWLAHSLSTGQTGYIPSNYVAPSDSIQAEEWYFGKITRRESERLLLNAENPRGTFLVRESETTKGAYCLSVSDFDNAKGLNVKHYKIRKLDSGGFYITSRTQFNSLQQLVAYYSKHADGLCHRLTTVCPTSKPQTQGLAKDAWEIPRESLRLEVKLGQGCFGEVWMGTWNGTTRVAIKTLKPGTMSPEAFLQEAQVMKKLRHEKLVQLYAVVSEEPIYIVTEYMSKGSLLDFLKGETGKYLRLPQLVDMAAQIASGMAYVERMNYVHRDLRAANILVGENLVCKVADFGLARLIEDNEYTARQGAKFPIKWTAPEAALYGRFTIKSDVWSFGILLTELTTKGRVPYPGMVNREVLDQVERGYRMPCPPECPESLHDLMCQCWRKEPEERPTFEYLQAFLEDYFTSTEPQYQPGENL", "assay": "In vitro multiple-kinase inhibition assay, c-Src", "assay_type": "biochemical", "procedure": "as §1, §2, §3, §4, §5, §6, §7, §8, §9, §10, §11"}, "[3]": {"test_system": "VEGF-induced vascular permeability (Evans Blue extravasation)", "assay": "Miles vascular permeability assay", "design": "species or system mice", "conditions": "in vivo; 10 mg/kg (Fig. 15)", "procedure": "Miles Vascular Permeability Assay. One to two days prior to the experiment, mice were shaved to expose the skin. Mice were anesthetized with intra-peritoneal injection of Avertin. A sterile solution of 1% Evans Blue (EB) in PBS was prepared and 100 μl was injected IV into the tail vein, using a needle (small gauge, 27–30) at a 10–15 degree angle. The animals were then left for (30–60) min. VEGF (50 μl of 1 ng/μl) and 50 μl of PBS with 0.05% gelatin were injected intradermally using a 30-gauge needle into the skin overlying the back. After 20 min, the animals were sacrificed by cervical dislocation that is recommended to limit significant interference with vascular permeability. The skin was opened, exposed and representative pictures were taken to assess the intensity of EB […]. The Formamide/EB mixture was centrifuged and supernatant absorbance was measured at 600 nm (Shimadzu Spectrophotometer, UV-1601; Japan). extravasation was calculated as ng EB per mg tissue."}},
  "data": [
    {"smiles": "Cc1cccc(NC(=O)Nc2ccc(Oc3ncnc4sc5c(c34)CCCC5)cc2)c1", "note": "[Compound 21b]", "values": [
      {"measurement": "Brain Index", "setting": "[1]; 5 mg/kg/day po", "result": "0.0164 ± 0.004"},
      {"measurement": "Heart Index", "setting": "[1]; 5 mg/kg/day po", "result": "0.0048 ± 0.0014"},
      {"measurement": "Kidney Index", "setting": "[1]; 5 mg/kg/day po", "result": "0.012 ± 0.003"},
      {"measurement": "Liver Index", "setting": "[1]; 5 mg/kg/day po", "result": "0.049 ± 0.01"},
      {"measurement": "Brain Index", "setting": "[1]; 10 mg/kg/day po", "result": "0.0167 ± 0.004"},
      {"measurement": "Heart Index", "setting": "[1]; 10 mg/kg/day po", "result": "0.0046 ± 0.0017"},
      {"measurement": "Kidney Index", "setting": "[1]; 10 mg/kg/day po", "result": "0.011 ± 0.003"},
      {"measurement": "Liver Index", "setting": "[1]; 10 mg/kg/day po", "result": "0.051 ± 0.017"},
      {"measurement": "Histopathological examination of liver, kidney, heart and brain samples", "setting": "[1]; 10 mg/kg, EAC solid tumor bearing mice (40x)", "result": "focally degenerated hepatocytes"},
      {"measurement": "Toxicity (overall statement)", "setting": "[1]; oral, 5 and 10 mg/kg/day for 8 consecutive days", "result": "did not show any noticeable toxicity"},
      {"measurement": "inhibition at 10 µM", "setting": "c-Kit", "result": 81, "unit": "%"},
      {"measurement": "VEGFR-2 phosphorylation in EAC solid tumor", "setting": "phospho-VEGFR-2 (Tyr951)", "result": "decreased VEGFR-2 phosphoryaltion"},
      {"measurement": "Active caspase 3 levels in EAC solid tumor", "setting": "active caspase 3", "result": "increased active caspase 3 levels"},
      {"measurement": "%MVD in EAC solid tumor", "setting": "CD31 and CD34 (% MVD)", "result": "reduction of %MVD"},
      {"measurement": "Tumor Index", "setting": "[2]; 5 mg/kg/day po, 8 consecutive days, mean ± SD, n = 6", "result": "0.041 ± 0.016"},
      {"measurement": "TGI (%)", "setting": "[2]; 5 mg/kg/day po", "result": 70.7, "unit": "%"},
      {"measurement": "Histopathological examination of EAC tumor sections (necrosis)", "setting": "[2]; 5 mg/kg", "result": "mild focal necrosis"},
      {"measurement": "TGI (%)", "setting": "[2]; 10 mg/kg/day po", "result": 86.4, "unit": "%"},
      {"measurement": "Histopathological examination of EAC tumor sections (necrosis)", "setting": "[2]; 10 mg/kg", "result": "moderate diffuse necrosis"},
      {"measurement": "inhibition at 10 µM", "setting": "c-Src", "result": 7, "unit": "%"},
      {"measurement": "Antiangiogenic effect in Miles vascular permeability assay", "setting": "[3]", "result": "confirmed the antiangiogenic effects"}
    ]},
    {"smiles": "COc1cccc(NC(=O)Nc2ccc(Oc3ncnc4sc5c(c34)CCCC5)cc2)c1", "note": "[Compound 21c]", "values": [
      {"measurement": "inhibition at 10 µM", "setting": "c-Kit", "result": 83, "unit": "%"},
      {"measurement": "inhibition at 10 µM", "setting": "c-Src", "result": 8, "unit": "%"}
    ]}
  ]
}
